Laboratory results from PubChem BioAssay (NCI).
Where “and” joins values, the source holds several entries; their conditions need not be identical. Identical values can stand only once.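 Compound exposure: 48 hours, 5 concentrations, 96-well plates. GI50: concentration for 50% inhibition of growth. TGI is the concentration that stops growth completely.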

Columns and labels:
Test in all cases: NCI anticancer screen, dose series, 48 h; in the data active = GI50 below about 0.43 µM; inactive = the rest
T-47D breast = system: T-47D breast
NCI/ADR-RES ovarian = system: NCI/ADR-RES ovarian
NCI-H460 lung = system: NCI-H460 lung
786-0 renal = system: 786-0 renal
COLO 205 colon = system: COLO 205 colon
NCI-H226 lung = system: NCI-H226 lung
MDA-MB-231 breast = system: MDA-MB-231 breast
SK-OV-3 ovarian = system: SK-OV-3 ovarian
SK-MEL-28 melanoma = system: SK-MEL-28 melanoma
EKVX NSCLC = system: EKVX NSCLC
IGROV1 ovarian = system: IGROV1 ovarian

COc1ccc(N2C(=O)C3CC4=CC(=O)C[C@H]4[C@H]32)cc1 (stereo partly drawn)
> 100 µM: TGI (T-47D breast) | TGI (NCI/ADR-RES ovarian) | TGI (NCI-H460 lung) | TGI (786-0 renal) | TGI (COLO 205 colon) | TGI (NCI-H226 lung) | TGI (MDA-MB-231 breast) | TGI (SK-OV-3 ovarian) | TGI (SK-MEL-28 melanoma)

Cc1cc(C)c(N=Nc2c(O)c(S(=O)(=O)O)cc3cc(S(=O)(=O)O)ccc23)cc1C
> 100 µM: TGI (T-47D breast) | TGI (NCI/ADR-RES ovarian) | TGI (786-0 renal) | TGI (EKVX NSCLC) | TGI (COLO 205 colon) | TGI (NCI-H226 lung) | TGI (MDA-MB-231 breast) | TGI (IGROV1 ovarian) | TGI (SK-OV-3 ovarian) | TGI (SK-MEL-28 melanoma)

CC(=O)O[C@H]1CC[C@H]2[C@@H]3CCC(C(C)=O)[C@H](C(=O)O)[C@H]3CC[C@]12C (stereo partly drawn)
> 100 µM: TGI (NCI/ADR-RES ovarian) | TGI (NCI-H460 lung) | TGI (EKVX NSCLC) | TGI (COLO 205 colon) | TGI (MDA-MB-231 breast) | TGI (IGROV1 ovarian) | TGI (SK-OV-3 ovarian) | TGI (SK-MEL-28 melanoma)

COc1ccccc1N=C1SCCN1C(=S)Nc1ccc(S(=O)(=O)/N=C/N(C)C)cc1
63.2 µM: TGI (EKVX NSCLC)
> 100 µM: TGI (T-47D breast) | TGI (NCI/ADR-RES ovarian) | TGI (NCI-H460 lung) | TGI (786-0 renal) | TGI (COLO 205 colon) | TGI (NCI-H226 lung) | TGI (MDA-MB-231 breast) | TGI (SK-OV-3 ovarian) | TGI (SK-MEL-28 melanoma)

CSC1=C(C(=O)Nc2ccccc2)C(N)=NC1=O
> 100 µM: TGI (T-47D breast) | TGI (NCI/ADR-RES ovarian) | TGI (NCI-H460 lung) | TGI (786-0 renal) | TGI (EKVX NSCLC) | TGI (COLO 205 colon) | TGI (NCI-H226 lung) | TGI (MDA-MB-231 breast) | TGI (SK-OV-3 ovarian) | TGI (SK-MEL-28 melanoma)

CC1(C)C2CCC(N)(C2)C1O (stereo not drawn)
> 100 µM: TGI (T-47D breast) | TGI (NCI/ADR-RES ovarian) | TGI (NCI-H460 lung) | TGI (786-0 renal) | TGI (EKVX NSCLC) | TGI (COLO 205 colon) | TGI (NCI-H226 lung) | TGI (IGROV1 ovarian) | TGI (SK-OV-3 ovarian) | TGI (SK-MEL-28 melanoma)

CCN(CC)CCC(=O)c1ccc(Oc2ccc(F)cc2)cc1
42 µM: TGI (T-47D breast)
30.2 µM: TGI (SK-MEL-28 melanoma)
31.2 µM: TGI (MDA-MB-231 breast)
28 µM: TGI (786-0 renal)
83.4 µM: TGI (NCI/ADR-RES ovarian)
39.4 µM: TGI (EKVX NSCLC)
36 µM: TGI (IGROV1 ovarian)
> 100 µM: TGI (NCI-H226 lung) | TGI (SK-OV-3 ovarian)
33.7 µM: TGI (COLO 205 colon)

CC1(C)CC[C@]2(C(=O)O)[C@H](O)C[C@]3(C)C(=CC[C@@H]4[C@@]5(C)CC[C@H](OC6OC(C(=O)O)C(O)C(O)C6O)C(C)(C)[C@@H]5CC[C@]43C)[C@@H]2C1 (stereo partly drawn)
> 100 µM: TGI (T-47D breast) | TGI (NCI/ADR-RES ovarian) | TGI (NCI-H460 lung) | TGI (786-0 renal) | TGI (EKVX NSCLC) | TGI (COLO 205 colon) | TGI (NCI-H226 lung) | TGI (IGROV1 ovarian) | TGI (SK-OV-3 ovarian)
37.1 µM: TGI (SK-MEL-28 melanoma)

Cc1cc(O)c(C(C)C)cc1N=Cc1ccccc1O
26.8 µM: TGI (EKVX NSCLC)
24.6 µM: TGI (NCI-H460 lung)
31.4 µM: TGI (SK-MEL-28 melanoma)
20.4 µM: TGI (NCI-H226 lung)
> 67 µM: TGI (NCI/ADR-RES ovarian)
28.8 µM: TGI (SK-OV-3 ovarian)
26.3 µM: TGI (786-0 renal)
22.4 µM: TGI (IGROV1 ovarian)
42.3 µM: TGI (COLO 205 colon)
3.59 µM: TGI (MDA-MB-231 breast)

C[N+](C)(N)c1nc(N)c(C#N)c(C#N)c1C#N
> 10 µM: TGI (T-47D breast) | TGI (NCI/ADR-RES ovarian) | TGI (NCI-H460 lung) | TGI (EKVX NSCLC) | TGI (COLO 205 colon) | TGI (NCI-H226 lung) | TGI (MDA-MB-231 breast) | TGI (IGROV1 ovarian) | TGI (SK-OV-3 ovarian) | TGI (SK-MEL-28 melanoma)

C#CCOC(=O)C(N)CCSC (stereo not drawn)
> 100 µM: TGI (T-47D breast) | TGI (NCI/ADR-RES ovarian) | TGI (786-0 renal) | TGI (EKVX NSCLC) | TGI (COLO 205 colon) | TGI (NCI-H226 lung) | TGI (MDA-MB-231 breast) | TGI (IGROV1 ovarian) | TGI (SK-OV-3 ovarian) | TGI (SK-MEL-28 melanoma)

COc1cc2c(c(OC)c1OC)-c1ccc(SC)cc1C(=O)CC2
> 100 µM: TGI (T-47D breast) | TGI (786-0 renal) | TGI (EKVX NSCLC) | TGI (IGROV1 ovarian) | TGI (SK-MEL-28 melanoma)
> 32.1 µM: TGI (NCI-H460 lung)
< 0.01 µM: TGI (SK-OV-3 ovarian)

CN(C)CCn1nc(N)c2nc3cc(C(F)(F)F)ccc3nc21
> 100 µM: TGI (NCI/ADR-RES ovarian) | TGI (NCI-H460 lung) | TGI (786-0 renal) | TGI (EKVX NSCLC) | TGI (COLO 205 colon) | TGI (NCI-H226 lung) | TGI (MDA-MB-231 breast) | TGI (IGROV1 ovarian) | TGI (SK-OV-3 ovarian) | TGI (SK-MEL-28 melanoma)

CCCCCCCCCCSCC(CO)NC(=O)/C=C/c1c(C)[nH]c(=O)[nH]c1=O (stereo not drawn)
> 50 µM: TGI (NCI/ADR-RES ovarian) | TGI (IGROV1 ovarian) | TGI (SK-OV-3 ovarian) | TGI (SK-MEL-28 melanoma)
inactive: GI50 (NCI-H226 lung) 2.18 µM | GI50 (SK-OV-3 ovarian) 1.82 µM and 7.04 µM
8.39 µM and 17.6 µM: TGI (COLO 205 colon)
> 50 µM and 12.4 µM: TGI (NCI-H226 lung)
18.2 µM and 49.5 µM: TGI (NCI-H460 lung)
> 42.3 µM: TGI (EKVX NSCLC)

COc1ccccc1NCC(=O)Nn1c(C)nc2ccc(S(=O)(=O)Nc3ccccc3OC)cc2c1=O
> 100 µM: TGI (NCI/ADR-RES ovarian) | TGI (NCI-H460 lung) | TGI (786-0 renal) | TGI (EKVX NSCLC) | TGI (COLO 205 colon) | TGI (NCI-H226 lung) | TGI (MDA-MB-231 breast) | TGI (IGROV1 ovarian) | TGI (SK-OV-3 ovarian) | TGI (SK-MEL-28 melanoma)

Cc1ccc2c(=O)c(-c3n[nH]c(=S)s3)c[nH]c2n1
> 100 µM: TGI (T-47D breast) | TGI (NCI/ADR-RES ovarian) | TGI (NCI-H460 lung) | TGI (786-0 renal) | TGI (EKVX NSCLC) | TGI (COLO 205 colon) | TGI (NCI-H226 lung) | TGI (MDA-MB-231 breast) | TGI (IGROV1 ovarian) | TGI (SK-MEL-28 melanoma)

O=C(NN=C1CCCCC1)NN=C1CCCCC1
> 100 µM: TGI (T-47D breast) | TGI (NCI/ADR-RES ovarian) | TGI (NCI-H460 lung) | TGI (COLO 205 colon) | TGI (MDA-MB-231 breast) | TGI (IGROV1 ovarian) | TGI (SK-OV-3 ovarian) | TGI (SK-MEL-28 melanoma)

CC1=CC(=O)/C(=C/n2c(=S)[nH]c3ccccc32)C(=O)O1
> 100 µM: TGI (T-47D breast) | TGI (NCI/ADR-RES ovarian) | TGI (NCI-H460 lung) | TGI (786-0 renal) | TGI (EKVX NSCLC) | TGI (COLO 205 colon) | TGI (NCI-H226 lung) | TGI (MDA-MB-231 breast) | TGI (IGROV1 ovarian) | TGI (SK-OV-3 ovarian)

COc1ccccc1NS(=O)(=O)c1ccc2ncn(NS(=O)(=O)c3ccc(Cl)cc3)c(=O)c2c1
> 100 µM: TGI (NCI/ADR-RES ovarian) | TGI (NCI-H460 lung) | TGI (786-0 renal) | TGI (EKVX NSCLC) | TGI (COLO 205 colon) | TGI (NCI-H226 lung) | TGI (MDA-MB-231 breast) | TGI (IGROV1 ovarian) | TGI (SK-OV-3 ovarian) | TGI (SK-MEL-28 melanoma)

CN1B(c2ccccc2)N(C)C(=O)N(C)C1=O
> 100 µM: TGI (T-47D breast) | TGI (NCI/ADR-RES ovarian) | TGI (NCI-H460 lung) | TGI (786-0 renal) | TGI (EKVX NSCLC) | TGI (COLO 205 colon) | TGI (NCI-H226 lung) | TGI (IGROV1 ovarian) | TGI (SK-OV-3 ovarian)

CN(CCO)/N=N/c1[nH]ncc1C(N)=O
> 100 µM: TGI (NCI/ADR-RES ovarian) | TGI (NCI-H460 lung) | TGI (EKVX NSCLC) | TGI (COLO 205 colon) | TGI (NCI-H226 lung) | TGI (IGROV1 ovarian) | TGI (SK-OV-3 ovarian) | TGI (SK-MEL-28 melanoma)

CC(C)c1cccc(C(C)C)c1OS(=O)(=O)NC(=O)OC(C(F)(F)F)C(F)(F)F
> 100 µM: TGI (NCI/ADR-RES ovarian) | TGI (NCI-H460 lung) | TGI (EKVX NSCLC) | TGI (COLO 205 colon) | TGI (NCI-H226 lung) | TGI (MDA-MB-231 breast) | TGI (IGROV1 ovarian) | TGI (SK-OV-3 ovarian) | TGI (SK-MEL-28 melanoma)
